Measurements taken from patent publication US8829014B2, “Thiazole and thiophene analogues, and their use in treating autoimmune diseases and cancers” (Board of Supervisors of Louisiana State University and …, priority 2006, dated 2014).
Like-named read-outs stand apart in the source and are kept apart here.

Experiments:
carageenan-induced edema = test: Carrageenan-induced rat paw edema test (anti-inflammatory activity); assay type: in vivo, Sprague-Dawley rats; conditions: for inhibition in vivo at 50 mg/kg: Rattus norvegicus, po, 3 h
Method in brief: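 Sprague-Dawley rats (male and female, 150-250 g), fasted 18 h, given compound orally at 50 mg/kg in 0.1% sodium CMC (alternatively i.v., s.c. or i.p.). 1% carrageenan injected sub-plantar in right hind paw 1 h later. Paw displacement read again 3 h later; % protection = [(Control−Test)/Control]×100 versus saline control.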

NF-κB = test: TNF-α-induced NF-κB-dependent luciferase expression in HEK cells; assay type: cell-based; conditions: luciferase in HEK/NF-κB cells, as described in Example 398; for inhibition at 1 µM: Homo sapiens, HEK293, 1 uM, read-out: NFkB inhibition @ 1 uM
AP-1 = test: PMA-induced AP-1 luciferase expression in HEK cells; assay type: cell-based; conditions: luciferase in HEK/AP-1 cells, as described in Example 398; for inhibition at 1 µM: AP1, 1 uM
[1] = rat paw edema, 50 mg/kg, reading 3 hours after carrageenan, [(Control−Test)/Control]×100%, read-out: % Protection P
[2] = rat paw edema, 50 mg/kg, reading 3 hours after carrageenan, [(Control−Test)/Control]×100%

`Nc1nc(Nc2ccc(Cl)cc2)sc1C(=O)c1ccccn1` [Example 340, [4-Amino-2-(4-chloro-phenylamino)-thiazol-5-yl]-pyridin-2-yl-methanone] showed an inhibition in vivo at 50 mg/kg (carageenan-induced edema; [1]) of 34%, an inhibition at 1 µM (NF-κB) of -18.2% and an inhibition at 1 µM (AP-1) of 57.3%.

For “2-[4-(4-Methylsulfanyl-phenyl)-5-morpholin-4-yl-thiophen-2-yl]-3-phenyl-3H-quinazolin-4-one [Example 276]”, the “% Protection P” value (carageenan-induced edema; [2]) was 49%, the “NFkB inhibition @ 1 uM” value (NF-κB) was −10 and the “AP-1 inhibition @ 1 uM” value (AP-1) was −17.

In the case of `CC(=O)Nc1ccc(-c2cc(-c3nc4ccccc4c(=O)n3-c3ccccc3)sc2N2CCOCC2)cc1` [Example 274, N-{4-[2-Morpholin-4-yl-5-(4-oxo-3-phenyl-3-,4-dihydro-quinazolin-2-yl)-thiophene-3-yl]-phenyl}-acetamide], the “% Protection P” value (carageenan-induced edema; [2]) is reported as 28% and the “NFkB inhibition @ 1 uM” value (NF-κB) is reported as 29.

Work on `CCOC(=O)Nc1nc(Cc2ccccc2)c(C(=O)c2sc(NC(=O)OCC)nc2Cc2ccccc2)s1` [Example 138, Diethyl[carbonyl-bis(4-benzyl-1,3-thiazole-5,2-diyl)]biscarbamate] yielded an inhibition in vivo at 50 mg/kg (carageenan-induced edema; [1]) of 88.9%, an inhibition at 1 µM (NF-κB) of 55.6% and an inhibition at 1 µM (AP-1) of 83.6%.

`Cc1ccc(Nc2nc(-c3ccccc3)c(C(=O)c3sc(Nc4ccc(C)cc4)nc3-c3ccccc3)s2)cc1` [Example 394, Bis-[2-(4-methyl-phenylamino)-4-phenyl-thiazol-5-yl]-methanone] was tested, and the inhibition in vivo at 50 mg/kg (carageenan-induced edema; [1]) was 56%, the inhibition at 1 µM (NF-κB) was 18.7% and the inhibition at 1 µM (AP-1) was 41.9%.

`O=C(c1ccncc1)c1cc(-c2ccccc2)c(N2CCOCC2)s1` [Example 51, (5-Morpholin-4-yl-4-phenyl-thiophene-2-yl)-pyridine-4-yl-methanone] was tested, and the inhibition in vivo at 50 mg/kg (carageenan-induced edema; [1]) was 39.6%, the inhibition at 1 µM (NF-κB) was 8.36% and the inhibition at 1 µM (AP-1) was 16.8%.

In the case of `Cc1ccc(C(=O)c2sc(N3CCN(C(=O)c4ccco4)CC3)nc2-c2ccccc2)cc1` [Example 381, {2-[4-(Furan-2-carbonyl)-piperazin-1-yl]-4-phenyl-thiazol-5-yl}-tolyl-methanone], the “% Protection P” value (carageenan-induced edema; [2]) is reported as 53% and the “AP-1 inhibition @ 1 uM” value (AP-1) is reported as 10.42.

`CCOC(=O)Nc1nc(C)c(C(=O)c2sc(NC(=O)OCC)nc2C)s1` [Example 124, Diethyl[carbonyl-bis(4-methyl-1,3-thiazole-5,2-diyl)]biscarbamate] showed an inhibition in vivo at 50 mg/kg (carageenan-induced edema; [1]) of 65.7%, an inhibition at 1 µM (NF-κB) of 20.1% and an inhibition at 1 µM (AP-1) of 71.6%.

Compound `Cc1c(OCC(F)(F)F)ccnc1-c1sc(N2CCN(C(=O)c3ccco3)CC2)nc1-c1ccccc1` [Example 389, Furan-2-yl-(4-{5-[3-methyl-4-(2,2,2-trifluoro-ethoxy)-pyridin-2-yl]-4-phenyl-thiazol-2-yl}-piperazin-1-yl)-methanone] has an inhibition in vivo at 50 mg/kg (carageenan-induced edema; [1]) of 61.6%, an inhibition at 1 µM (NF-κB) of 30.7% and an inhibition at 1 µM (AP-1) of 42.5%.

With `CNc1nc(C)c(C(=O)c2sc(NC)nc2C)s1` [Example 118, Bis-(4-methyl-2-methylamino-thiazole-5-yl)-methanone] the inhibition in vivo at 50 mg/kg (carageenan-induced edema; [1]) was 40.9%, the inhibition at 1 µM (NF-κB) was 8.84% and the inhibition at 1 µM (AP-1) was 33.4%.

With `O=C(c1cccnc1)c1cc(-c2ccc(Cl)cc2)c(N2CCOCC2)s1` [Example 86, [4-(4-Chloro-phenyl)-5-morpholin-4-yl-thiophen-2-yl]-pyridin-3-yl-methanone] the inhibition in vivo at 50 mg/kg (carageenan-induced edema; [1]) was 28.1%, the inhibition at 1 µM (NF-κB) was 3.6% and the inhibition at 1 µM (AP-1) was 15.2%.

`CS(=O)(=O)c1ccc(-c2cc(-c3nc4ccccc4c(=O)n3-c3ccc(Cl)cc3)sc2N2CCOCC2)cc1` [Example 312, 2-[4-(4-Methanesulphonyl-phenyl)-5-morpholin-4-yl-thiophen-2-yl]-3-(4-chloro-phenyl)-3H-quinazolin-4-one] showed an inhibition in vivo at 50 mg/kg (carageenan-induced edema; [1]) of 57%, an inhibition at 1 µM (NF-κB) of 0% and an inhibition at 1 µM (AP-1) of 7%.

With `COc1c(C)cnc(-c2sc(N3CCN(C(=O)c4ccco4)CC3)nc2-c2ccco2)c1C` [Example 378, Furan-2-yl-{4-[4-furan-2-yl-5-(4-methoxy-3,5-dimethyl-pyridin-2-yl)-thiazol-2-yl]-piperazin-1-yl}-methanone] the inhibition in vivo at 50 mg/kg (carageenan-induced edema; [1]) was 84.2%, the inhibition at 1 µM (NF-κB) was 22.1% and the inhibition at 1 µM (AP-1) was 43.3%.

For “(5-Morpholin-4-yl-4-pyridin-3-yl-thiophene-2-yl)-phenyl-methanone [Example 90]”, the “% Protection P” value (carageenan-induced edema; [2]) was 6.09%, the “NFkB inhibition @ 1 uM” value (NF-κB) was 7.91 and the “AP-1 inhibition @ 1 uM” value (AP-1) was 59.49.

“Bis-[2-(2-benzoyl-amino)-4-benzayl-thiazole-5-yl]-methanone [Example 135]” was tested, and the “% Protection P” value (carageenan-induced edema; [2]) was 34.72%, the “NFkB inhibition @ 1 uM” value (NF-κB) was 39.98 and the “AP-1 inhibition @ 1 uM” value (AP-1) was 41.43.

With `COc1ccccc1-n1c(-c2cc(-c3ccncc3)c(N3CCOCC3)s2)nc2ccccc2c1=O` [Example 298] the “% Protection P” value (carageenan-induced edema; [2]) was 42% and the “NFkB inhibition @ 1 uM” value (NF-κB) was 55.

In the case of `O=c1c2ccccc2nc(-c2cc(-c3ccncc3)c(N3CCOCC3)s2)n1-c1ccccc1` [Example 277], the “% Protection P” value (carageenan-induced edema; [2]) is reported as 65% and the “AP-1 inhibition @ 1 uM” value (AP-1) is reported as 38.

With `O=C(c1ccc(Cl)cc1)c1cc(-c2ccncc2)c(N2CCOCC2)s1` [Example 105, (4-Chloro-phenyl)-(5-morpholin-4-yl-4-pyridin-4-yl-thiophen-2-yl)-methanone] the inhibition in vivo at 50 mg/kg (carageenan-induced edema; [1]) was 47.2%.

`O=C(c1ccccc1)c1cc(-c2ccccc2)c(N2CCOCC2)s1` [Example 42, (5-Morpholin-4-yl-4-phenyl-thiophen-2-yl)-phenyl-methanone] gave an inhibition in vivo at 50 mg/kg (carageenan-induced edema; [1]) of 53.5%.

In the case of `O=C(c1cccnc1)c1cc(-c2cccnc2)c(N2CCOCC2)s1` [Example 98, (5-Morpholin-4-yl-4-pyridin-3-yl-thiophen-2-yl)-pyridin-3-yl-methanone], the inhibition in vivo at 50 mg/kg (carageenan-induced edema; [1]) is reported as 42%.

Compound `COc1ccc(Nc2nc(NC(=O)Nc3ccc(F)cc3)c(C(=O)c3ccc(Cl)cc3)s2)cc1` [Example 363, 1-[5-(4-Chloro-benzoyl)-2-(4-methoxy-phenylamino)-thiazol-4-yl]-3-(4-fluoro-phenyl)-urea] has an inhibition in vivo at 50 mg/kg (carageenan-induced edema; [1]) of 54.5%.

`O=C(Nc1ccc(F)cc1)Nc1nc(Nc2ccc(Cl)cc2)sc1C(=O)c1cccnc1` [Example 359, 1-[2-(4-Chloro-phenylamino)-5-(pyridine-3-carbonyl)-thiazol-4-yl]-3-(4-fluoro-phenyl)-urea] was tested, and the inhibition in vivo at 50 mg/kg (carageenan-induced edema; [1]) was 64.2%.

`Cc1ccc(Nc2nc(C)c(-c3nc4ccccc4c(=O)n3-c3ccc(Cl)cc3)s2)cc1` [Example 247, 2-[2-(4-Methylphenylamino)-4-methyl-thiazol-5-yl]-3-(4-chloro-phenyl)-3H-quinazolin-4-one] was tested, and the inhibition in vivo at 50 mg/kg (carageenan-induced edema; carrageenan-induced rat paw edema, defined in Example 397, read-out: % Protection) was 71.9%.

`O=C(Nc1nc(-c2ccccc2)c(C(=O)c2sc(NC(=O)c3ccco3)nc2-c2ccccc2)s1)c1ccco1` [Example 129, Bis-[2-(2-Furoyl-amino)-4-phenyl-thiazole-5-yl]-methanone] was tested, and the inhibition in vivo at 50 mg/kg (carageenan-induced edema; [1]) was 55%.

Compound `Nc1nc(Nc2ccccc2)sc1C(=O)c1ccncc1` [Example 328, (4-Amino-2-phenylamino-thiazol-5-yl)-pyridin-4-yl-methanone] has an inhibition in vivo at 50 mg/kg (carageenan-induced edema; [1]) of 76%.

For `CC(=O)Nc1ccc(-c2cc(C(=O)c3cc(OCC(F)(F)F)c(C)cn3)sc2N2CCOCC2)cc1` [Example 65, N(4-{5-[5-Methyl-4-(2,2,2-trifluoro-ethoxy)-pyridine-2-carbonyl]-2-morpholin-4-yl-thiophen-3-yl}-phenyl)-acetamide], the “% Protection P” value (carageenan-induced edema; [2]) was 30%.

`CS(=O)(=O)c1ccc(C(=O)c2sc(Nc3ccccc3)nc2N)cc1` [Example 325, (4-Amino-2-phenylamino-thiazol-5-yl)-(4-methanesulfonyl-phenyl)-methanone] showed an inhibition in vivo at 50 mg/kg (carageenan-induced edema; [1]) of 12%.

For “4-{5-[5-Methyl5-(2,2,2-trifluoro-ethoxy)-pyridin-2-yl]-3-pyridin-4-yl-thiphen-2-yl}-morpholine [Example 101]”, the “% Protection P” value (carageenan-induced edema; [2]) was 47%.

In the case of `O=C(c1ccncc1)c1cc(-c2cccnc2)c(N2CCOCC2)s1` [Example 99, (5-Morpholin-4-yl-4-pyridin-3-yl-thiophen-2-yl)-pyridin-4-yl-methanone], the inhibition in vivo at 50 mg/kg (carageenan-induced edema; [1]) is reported as 26%.

With `Nc1nc(Nc2ccc(Cl)cc2)sc1C(=O)c1ccc(Cl)cc1Cl` [Example 335, [4-Amino-2-(4-chloro-phenylamino)-thiazol-5-yl]-(2,4-dichloro-phenyl)-methanone] the inhibition in vivo at 50 mg/kg (carageenan-induced edema; [1]) was 30.3%.

Work on `Cc1ccc(-n2c(-c3cc(-c4ccc(Cl)cc4)c(N4CCOCC4)s3)nc3ccccc3c2=O)cc1` [Example 291, 2-[4-(4-Chlorophenyl)-5-morpholin-4-yl-thiophen-2-yl]-3-p-tolyl-3H-quinazolin-4-one] yielded an inhibition in vivo at 50 mg/kg (carageenan-induced edema; [1]) of 53%.

Work on `O=C(c1cc(-c2ccncc2)c(N2CCOCC2)s1)c1ccc(Cl)cc1Cl` [Example 106, (2,4-Dichloro-phenyl)-(5-morpholin-4-yl-4-pyridin-4-yl-thiophen-2-yl)-methanone] yielded an inhibition in vivo at 50 mg/kg (carageenan-induced edema; [1]) of -75.2%.

With `CN1CCN(c2sc(-c3nc4ccccc4c(=O)n3-c3ccc(Cl)cc3)cc2-c2ccc(S(C)(=O)=O)cc2)CC1` [Example 318, 3-(4-Chlorophenyl)-2-[4-(4-methanesulfonyl-phenyl)-5-(4-methyl-piperazine-1-yl)-thiophen-2-yl]-3H-quinazolin-4-one] the inhibition in vivo at 50 mg/kg (carageenan-induced edema; [1]) was 21%.

Compound `Nc1nc(Nc2ccccc2)sc1C(=O)c1cccnc1` [Example 327, (4-Amino-2-phenylamino-thiazol-5-yl)-pyridin-3-yl-methanone] has an inhibition in vivo at 50 mg/kg (carageenan-induced edema; [1]) of 32%.

For `COc1ccccc1-n1c(-c2cc(-c3ccccc3)c(N3CCOCC3)s2)nc2ccccc2c1=O` [Example 294, 3-(2-Methoxy-phenyl)-2-(5-morpholin-4-yl-4-phenyl-thiophen-2-yl)-3H-quinazolin-4-one], the inhibition in vivo at 50 mg/kg (carageenan-induced edema; [1]) was 34%.
